In patent publication US20260250318A1, “COMPOSITIONS AND METHODS FOR CROSSING THE BLOOD BRAIN BARRIER” (VOYAGER THERAPEUTICS, INC., priority 2022, published 2026):

Key:
Conditions in all cases: synthetic library passage 3, intravenous, relative to wild-type AAV9
brain [1] = assay: NGS fold enrichment of synthetic library (passage 3) in BALB/c mice, first cross-species screen; type: in vivo
Outline: (§1)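 Fold enrichment versus wild-type AAV9 was derived by NGS of RT-PCR-amplified RNA from nervous tissue, collected e.g. 28 days after IV dosing […]. The library (passage 3) was given to two NHPs aged 2-4 years and to 6-8-week BALB/c and C57Bl/6 mice (n=3 each).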

brain [2] = assay: NGS fold enrichment of synthetic library (passage 3) in C57Bl/6 mice, first cross-species screen; type: in vivo
Outline: as §1

[3] = system: brain, spinal cord, and DRG of the NHPs; assay: NGS fold enrichment of synthetic library (passage 3) in NHPs, first cross-species screen; type: in vivo, cynomolgus macaques (Macaca fascicularis)
Outline: as §1

[4] = RNA from brain of BALB/c mice, NGS
[5] = RNA from brain of C57Bl/6 mice, NGS
[6] = RNA from spinal cord of NHPs, NGS

Sequence	Fold enrichment over AAV9 in the brain of Mice (BALB/c) (brain [1]; RNA NGS, brain of BALB/c mice)	Fold enrichment over AAV9 in the brain of Mice (C57Bl/6) (brain [2]; RNA NGS, brain of C57Bl/6 mice)	Fold enrichment over AAV9 in the brain of NHPs ([3]; RNA NGS, brain of NHPs)	Fold enrichment over AAV9 in the spinal cord of NHPs ([3]; RNA NGS, spinal cord of NHPs)	Fold enrichment over AAV9 in the brain of Mice (BALB/c) (brain [1]; [4])	Fold enrichment over AAV9 in the brain of Mice (C57Bl/6) (brain [2]; [5])	Fold enrichment over AAV9 in the brain of NHPs ([3]; RNA from brain of NHPs, NGS)	Fold enrichment over AAV9 in the spinal cord of NHPs [3, 6]
GSSPAPNSGQNQQT	0.368 fold	0.719 fold	1.106 fold	2.229 fold	–	–	–	–
GSGDLVVSTQNQQT	0.273 fold	0.411 fold	3.874 fold	1.177 fold	–	–	–	–
GSGQSFQMHTNQQT	0.325 fold	0.503 fold	1.504 fold	9.770 fold	–	–	–	–
GSGQNQHYSLHKQT	1.273 fold	1.485 fold	1.563 fold	3.399 fold	–	–	–	–
GSGFHTDSRQNQQT	0.575 fold	7.344 fold	1.748 fold	4.384 fold	–	–	–	–
GSLSSHGVGQNQQT	0.804 fold	1.218 fold	1.911 fold	7.498 fold	–	–	–	–
GSGIQSSYSQNQQT	0.684 fold	1.032 fold	1.517 fold	15.978 fold	–	–	–	–
GSSQSTGYQPNQQT	0.577 fold	0.522 fold	1.847 fold	3.388 fold	–	–	–	–
GSGQNQQGTGVSHT	–	–	–	–	0.749 fold	1.417 fold	1.371 fold	4.295 fold
GSGTVHAATQNQQT	0.476 fold	0.563 fold	1.721 fold	1.676 fold	–	–	–	–
GGGTKMDSGQNQQT	0.297 fold	0.733 fold	3.034 fold	0.000 fold	–	–	–	–
GSGQNQQVAIRTST	0.370 fold	0.963 fold	1.035 fold	2.447 fold	–	–	–	–
GSGQNRGISISQQT	0.566 fold	0.686 fold	1.057 fold	2.166 fold	–	–	–	–
GSRETSLSGQNQQT	–	–	–	–	0.203 fold	1.364 fold	1.373 fold	5.193 fold
GPGSAHSSGQNQQT	0.872 fold	1.099 fold	1.785 fold	4.392 fold	–	–	–	–
GSGQLSGIGGNQQT	0.626 fold	0.993 fold	3.266 fold	0.287 fold	–	–	–	–
GSSREFHSGQNQQT	–	–	–	–	0.474 fold	0.688 fold	1.203 fold	1.591 fold
GSGQNQQIPHVHQT	–	–	–	–	0.218 fold	0.576 fold	1.409 fold	0.768 fold
GSGQILHSVPNQQT	0.240 fold	0.398 fold	1.752 fold	1.316 fold	–	–	–	–
GSGQNQQTRLTDLT	0.776 fold	0.910 fold	2.046 fold	8.470 fold	–	–	–	–

Sequence	Fold enrichment over AAV9 in the brain of Mice (BALB/c) (brain [1]; RNA NGS, brain of BALB/c mice)	Fold enrichment over AAV9 in the brain of Mice (C57Bl/6) (brain [2]; RNA NGS, brain of C57Bl/6 mice)	Fold enrichment over AAV9 in the brain of NHPs ([3]; RNA NGS, brain of NHPs)	Fold enrichment over AAV9 in the spinal cord of NHPs ([3]; RNA NGS, spinal cord of NHPs)	Fold enrichment over AAV9 in the brain of Mice (BALB/c) (brain [1]; [4])	Fold enrichment over AAV9 in the brain of Mice (C57Bl/6) (brain [2]; [5])	Fold enrichment over AAV9 in the brain of NHPs ([3]; RNA from brain of NHPs, NGS)	Fold enrichment over AAV9 in the spinal cord of NHPs [3, 6]
GSNMGVPLGQNQQT	0.420 fold	0.334 fold	2.049 fold	2.448 fold	–	–	–	–
GSGSPHVKSQNQQT	15.861 fold	8.069 fold	37.551 fold	13.649 fold	–	–	–	–
GVHDMRVSGQNQQT	0.818 fold	1.171 fold	1.032 fold	8.083 fold	–	–	–	–
GSTGIVSSGQNQQT	1.046 fold	2.141 fold	1.570 fold	0.927 fold	–	–	–	–
GSGQARAHRGNQQT	0.386 fold	0.254 fold	1.017 fold	0.000 fold	–	–	–	–
GSGQNVSSVHRQQT	0.271 fold	0.383 fold	1.045 fold	0.712 fold	–	–	–	–
GSGQNQQASLPSRT	0.673 fold	0.930 fold	1.456 fold	0.389 fold	–	–	–	–
GMDHSRPSGQNQQT	0.648 fold	0.918 fold	1.627 fold	3.976 fold	–	–	–	–
GSGLSGITMQNQQT	0.496 fold	0.862 fold	1.792 fold	14.796 fold	–	–	–	–
GSGQNQQTSPRLQT	1.091 fold	1.156 fold	1.100 fold	0.795 fold	–	–	–	–
GSGQNKDHSTRRQT	–	–	–	–	0.477 fold	0.384 fold	1.197 fold	0.000 fold
GSIAMTSHGQNQQT	–	–	–	–	0.438 fold	0.551 fold	1.178 fold	1.435 fold
GSAAMSVRGQNQQT	0.287 fold	0.202 fold	1.029 fold	2.386 fold	–	–	–	–
GSGQNQQAPHKKET	–	–	–	–	0.689 fold	0.994 fold	1.180 fold	0.598 fold
GSGQHVSVANNQQT	0.577 fold	0.974 fold	1.029 fold	5.734 fold	–	–	–	–
GSGHAKAVGQNQQT	0.824 fold	0.703 fold	1.081 fold	4.357 fold	–	–	–	–
GSLKPTTLGQNQQT	0.220 fold	0.175 fold	1.840 fold	0.476 fold	–	–	–	–
GSGHVPNSGLNQQT	1.154 fold	1.636 fold	2.091 fold	0.653 fold	–	–	–	–
GSGQTARNGINQQT	–	–	–	–	0.472 fold	1.002 fold	1.192 fold	2.030 fold
GSGQTRQMKDNQQT	0.214 fold	0.841 fold	1.530 fold	11.079 fold	–	–	–	–
